# Test results from patent US20100144737A1, “METHODS FOR INHIBITING T HELPER CELL DIFFERENTIATION” (FibroGen, Inc., priority 2008, published 2010).
# What was measured:
# [1] = system: IL12Rβ2, IL18R1, and IL18RAP gene expression in T helper cells; experiment: IL-12-induced gene expression in T helper cells (quantitative RT-PCR); type: cell-based, human; conditions: TCR-stimulated T helper cells
# Protocol: The effect of compounds and methods of the present invention on IL-12-induced gene expression in T helper cells was evaluated as follows. For these studies, analyses were performed to examine the effect of compounds of the present invention on expression of three genes induced by IL-12 in T helper cells: IL12Rβ2, IL18R1, and IL18RAP. (See, e.g., Saremeva et al. (2000) J hnmunol 165:1933-1938; Rogge et al. (1997) J Exp Med 185:825-831; and Nakahira et al. (2001) J Inmunol 167:1306-1312.)
# Human cord blood naive T helper cells (AllCells LLC, Emeryville, Calif.) were stimulated (i.e., T cell receptor (TCR) stimulation) by seeding into 96-well culture dishes coated with 5 μg/ml anti-CD3 antibody (clone UCHT1, R&D Systems, Minneapolis, Minn.), and 5 μg/ml anti-CD28 antibody (clone ANC28.1/D10, Ancell Corporation, Bayport, Minn.), and cultured at 37° C., 5% CO2 in RPMI-1640 (Mediatech Inc., Herndon, Va.) containing 1% FBS, 1 U/ml penicillin-1 μg/ml streptomycin (Invitrogen Corporation, Carlsbad, California), and 50 U/ml IL-2 (Roche Diagnostics Corporation, Indianapolis, Ind.). At time of seeding, cells were cultured with media alone or with media containing 2 ng/ml IL-12 (R&D Systems, Minneapolis, Minn.) (to stimulate differentiation of the T helper cells into Th1 cells) and 10 μg/ml anti-IL-4 antibody (R&D Systems, Minneapolis, Minn.) (to block differentiation of the T helper cells into Th2 cells). Compound B or 1% DMSO (Veh) was added to the existing culture media and the cells cultured for an additional six days.
# The cells were then lysed using Cell-to-Signal lysis buffer (Applied Biosystems, Foster City, Calif.) according to the manufacturer's instructions. The cell lysates were diluted with RNAse-free and DNAse-free water and used as templates in quantitative one-step duplex RT-PCR reactions using QuantiTect Multiplex RT-PCR Kit reagents (Qiagen Inc., Valencia, Calif.) and Taqman primers and probes (Applied Biosystems, Foster City, Calif.) as follows: IL18RAP Taqman primer/probe, catalog no. HS00187256M1; IL-12Rβ2 Taqman primer/probe, catalog no. HS00155486M1; EL18R1 Taqman primer/probe, catalog no. HS00175381M1; and TBET Taqman primer/probe, catalog no. HS00203436M1. RT-PCR reactions were performed according to the manufacturers' instructions. Changes in gene expression of IL12Rβ2, IL18R1, and IL18RAP following IL-12 addition in each sample were normalized relative to 18s ribosomal RNA gene expression measured in the same sample.
# naïve T helper cells = experiment: Th1 cell differentiation: IFN-γ secretion after second and third TCR stimulation following washout; type: cell-based, human; conditions: another series, first TCR stimulation six days with IL-12, FIG. 8
# Protocol: The effectiveness of compounds of the present invention at reducing Th1 differentiation was examined as follows. Th1 differentiation was induced by culturing anti-CD3 stimulated T cells in the presence of exogenous IL-12. Human cord blood naive T helper cells (AllCells LLC, Emeryville, Calif.) were stimulated (i.e., T cell receptor (TCR) stimulation) by seeding into 96-well culture dishes coated with 5 μg/ml anti-CD3 antibody (clone UCHT1, R&D Systems, Minneapolis, Minn.), and 5 μg/ml anti-CD28 antibody (clone ANC28.1/D10, Ancell Corporation, Bayport, Minn.), and cultured at 37° C., 5% CO2 in RPMI-1640 (Mediatech Inc., Hemdon, Va.) containing 1% FBS, 1 U/ml penicillin-1 μg/ml streptomycin (Invitrogen Corporation, Carlsbad, Calif.), and 50 U/ml IL-2 (Roche Diagnostics Corporation, Indianapolis, Ind.). At time of seeding, cells were cultured with media alone or with media containing 2 ng/ml IL-12 and 10 μg/ml anti-IL-4 to induce Th1 cell differentiation. […]
# The cells were then collected, washed twice with RPMI-1640 media containing 1% FBS, and counted before equal numbers of cells per well were re-stimulated (second T cell receptor (TCR) stimulation following washout of all prior treatments) by re-seeding the cells into 96-well culture dishes coated with 5 μg/ml anti-CD3 antibody and 5 μg/ml anti-CD28 antibody. […] After 24 hours the conditioned media from the cells was collected and analyzed for IFN-γ levels using a MS2400 Tissue Culture Kit (MesoScale Technologies, Gaithersburg, Md.) according to the manufacturer's instructions.
# Thirteen days after the second TCR stimulation described above, the cells were collected, washed twice with RPMI-1640 media containing 1% FBS, and counted before equal numbers of cells per well were stimulated a third time (third TCR stimulation) by re-seeding into 96-well culture dishes coated with 5 μg/ml anti-CD3 antibody and 5 μg/ml anti-CD28 antibody. […]
# In another series of experiments, the effectiveness of compounds of the present invention at reducing Th1 differentiation was determined. […]
# [2] = absence of IL-12, six days, normalized to 18s ribosomal RNA
Compound,"gene expression of IL12Rβ2 [1, 2]","gene expression of IL18R1 [1, 2]","gene expression of IL18RAP [1, 2]","IL-12-mediated increase in IL12Rβ2 gene expression ([1]; presence of IL-12, six days)","IL-12-mediated increase in IL18R1 gene expression ([1]; presence of IL-12, six days)","IL-12-mediated increase in IL18RAP gene expression ([1]; presence of IL-12, six days)",IFN-γ secretion following the second TCR stimulation (naïve T helper cells)
"O=C(O)CNC(=O)c1ncc2cc(Oc3ccccc3)ccc2c1O [Compound B, [(4-Hydroxy-7-phenoxy-isoquinoline-3-carbonyl)-amino]-acetic acid]",decrease,decrease,decrease,reduced,reduced,reduced,
"Cc1ccc(Cl)c2cnc(C(=O)NCC(=O)O)c(O)c12 [Compound D, [(8-Chloro-4-hydroxy-5-methyl-isoquinoline-3-carbonyl)-amino]-acetic acid]",,,,,,,reduced IFN-γ secretion
